Some results are limits rather than exact numbers.

The record followed here is patent publication US11377473B2, “Albumin-binding prodrugs of auristatin E derivatives” (priority 2017, dated 2022).

One data set in a line: Dose finding studies. The method, then:
Female immunodeficient NMRI nude mice, from Janvier, France, received 5×10^6-10^7 cultured cancer cell in buffer/Matrigel (1:1) inoculated subcutaneously, until tumors were palpable and had reached the desired volume (for xenograft studies).
Animals were kept in cages (Macrolon Type-II wire-mesh) with temperature maintained at 22±1° C., relative humidity of 50 f 10% and an air change rate of 60-fold per hour. Mice were kept under a 12-hour light/12-hour dark, artificial light cycle. The animals were fed with autoclaved Ssniff NM (Soest, Germany), and had access to sterile filtered and acidified (pH 4.0) tap water which was changed twice weekly. Feed and water were provided ad libitum. […] The health of the animals was examined at the start of the experiment and twice per day during the experiment. Identification used: ear mark and cage labels. Starting on day 0, animals were weighed two or three times per week and mean body weight per group was related to the initial value in percent to calculate the body weight change (BWC). Tumor diameters were determined by a two-dimensional measurement with a caliper on the day of randomization (Day 0) and then twice or three times per week. Tumor volumes were calculated according to the following equation:
Tumor Vol [mm^3]=1 [mm]×w^2 [mm^2]×0.5, where “1” is the length and “w” is width of the tumor. The relative volume of an individual tumor on day X (RTVx) was calculated by dividing the absolute individual tumor volume [mm^3] of the respective tumor on day X (Tx) by the absolute individual tumor volume of the same tumor on the day of randomization multiplied by 100%. Schedules were applied to the extent that animal welfare policies allow. Termination of individual mice was carried out at tumor volume >1500 mm^3 (unilateral) or when ulceration was observed. Statistical comparison was performed with the Mann-Whitney U-test. Dose Finding Studies of Auristatin E and the Albumin-Binding Auristatin E Derivatives AE-Keto-Sulf07 and AE-Ester-Sulf07.
Stock solutions were prepared as follows: • 1) 3 mice per group, 26 g average weight on day of randomization: 0.3, 0.6 or 1.2 mg/kg dose auristatin E TFA salt (AE equiv.) dosed once weekly for 4 weeks on day 0, 6, 13, 20≡0.35-1.41 mg/kg≡7.1-28.3 μg/20 g mouse. Sample preparation: 8.5 mg weighed in a 50 mL vial dissolved in 30.0 mL 25/75 tert-butanol/10 mM sodium phosphate buffer, 5% sucrose—pH 7.0; 0.2-0.8 mL were aliquoted in 2 mL vials depending on the final desired final dose. The vials were frozen for 1 h at −40° C. and lyophilized at −20° C. over ˜36 h and then stoppered. On day of injection, the lyophilized samples were reconstituted with 0.8 mL of 10 mM sodium phosphate buffer, 20% propylene glycol—pH 7.0. • 2) 3 mice per group, 26 g average weight on day of randomization: 1.2 and 2.4 mg/kg AE-Keto-Sulf07 (AE equiv.) dosed twice weekly for 4 weeks ≡1.94-3.87 mg/kg≡38.7 and 77.4 μg/20 g mouse. Sample preparation: 11.0 mg weighed in a 30 mL vial dissolved in 14.2 mL 50/50 tert-butanol/10 mM sodium phosphate buffer, 5% sucrose—pH 7.0; 0.4-0.8 mL were aliquoted in 2 mL vials depending on the final desired final dose. The vials were frozen for 1 h at −40° C. and lyophilized at −20° C. over ˜36 h and then stoppered. On the day of injection, the lyophilized samples were reconstituted with 0.8 mL of 10 mM sodium phosphate buffer, 20% propylene glycol—pH 7.0. • 3) 3 mice per group, 26 g average weight on day of randomization: 1.2, 1.6 or 2.0 mg/kg AE-Ester-Sulf07 (AE equiv.) dosed twice weekly for 4 weeks on day≡2.18-3.64 mg/kg≡43.7-72.8 μg/20 g mouse. Sample preparation: 19.2 mg weighed in a 30 mL vial dissolved in 26.3 mL 50/50 tert-butanol/10 mM sodium phosphate buffer, 5% sucrose—pH 7.0; 0.48-0.8 mL were aliquoted in 2 mL vials depending on the final desired final dose. The vials were frozen for 1 h at −40° C. and lyophilized at −20° C. over ˜36 h and then stoppered.

Data set [1] relates to malignant melanoma cancer model A375. The data set is described as follows: Human malignant melanoma cancer model A375, large tumors. In kind it is in vivo, NMRI nude mice. The procedure:
(§1) Feed and water were provided ad libitum. […] Identification used: ear mark and cage labels. […] Tumor volumes were calculated according to the following equation: […]
The evaluation of auristatin E and the albumin-binding auristatin E derivative AE-Keto-Sulf07 in a human malignant melanoma cancer model A375 was carried out as described in the general procedure for cell-line-derived xenograft models.
Stock solutions were prepared as follows: • 1) 7 mice, 28 g average weight, 310 mm^3 average median tumor volume on day of randomization: 0.3 mg/kg auristatin E TFA salt (AE equiv.) dosed twice weekly for 3 weeks on day 1, 6, 9, 13, 16≡0.35 mg/kg≡7.1 μg/20 g mouse.
The evaluation of auristatin E and the albumin-binding auristatin E derivative AE-Ester-Sulf07 in a human malignant melanoma cancer model A375 was carried out as described in the general procedure for cell-line-derived xenograft models.
Based on the dosing experience in the RXF631 xenograft model, stock solutions were prepared as follows: • 1) 7 mice, 28 g average weight, 310 mm^3 average median tumor volume on day of randomization: 0.3 mg/kg auristatin E TFA salt (AE equiv.) dosed twice weekly for 3 weeks on day 1, 6, 9, 13, 16=0.35 mg/kg≡7.1 μg/20 g mouse.

In data set [2] the test system is human ovarian carcinoma model A2780. Description: Human ovarian carcinoma model A2780, large tumors. In kind it is in vivo, NMRI nude mice. The procedure: as §1
The evaluation of auristatin E and the albumin-binding auristatin E derivative AE-Keto-Sulf07 in a human ovarian carcinoma model A2780 was carried out as described in the general procedure for cell-line-derived xenograft models.
The evaluation of auristatin E and the albumin-binding auristatin E derivative AE-Ester-Sulf07 in a human ovarian carcinoma model A2780 was carried out as described in the general procedure for cell-line-derived xenograft models.

Where [3] appears, read: 2.4 mg/kg five times twice weekly.
Where [4] appears, read: 1.9 mg/kg eight times twice weekly.

Turning to “2-(2-(1-(4-(((1S,2R)-2-((2R,3R)-3-((S)-1-((3R,4R,5S)-4-((S)-2-((R)-2-(dimethylamino)-3-methylbutanamido)-N,3-dimethylbutanamido)-3-methoxy-5-methylheptanoyl)pyrrolidin-2-yl)-3-methoxy-2-methylpropanamido)-1-phenylpropoxy)carbonyl)phenyl)ethylidene)hydrazine-1-carbonyl)-5-(6-(2,5-dioxo-2,5-dihydro-1H-pyrrol-1-yl)hexanamido)benzenesulfonic acid [AE-Ester-Sulf07]”, the “side effect compared with the other groups” value in “Dose finding studies” (4.0 mg/kg once weekly) is “lowest side effect”. The body weight change result in the data set “Dose finding studies” (2.0, 2.2, 2.4 mg/kg twice per week and 4.0, 4.4, 4.8 mg/kg once per week over four weeks) is “No body weight change”; in data set [1] (setting [3]), “No significant body weight change compared to the control”. Further, the “appearance of skin irritation” value in the data set “Dose finding studies” (all groups: 2.0, 2.2, 2.4 mg/kg twice per week and 4.0, 4.4, 4.8 mg/kg once per week) was in the range of 9 to 14 days. Further, the tolerability result in “Dose finding studies” (up to 2.0 mg/kg dosed twice weekly for four weeks) is “no evident sign of toxicity”. Also, the “p, antitumor improvement versus auristatin E” value in data set [1] (2.4 mg/kg (2% polysorbate 80 or 4% 2-HPßCD) versus auristatin E 0.3 mg/kg, five injections twice weekly, day 9 to 33) is given as less than 0.01. Besides, the side effects result in data set [1] (setting [3]) was “wounds due to biting and scratching were observed starting from day 9”. Besides, the tumor response result in data set [1] (2.4 mg/kg five times twice weekly, day 16 until end of study on day 37) is given as “almost complete remission”; in data set [2] (1.9 mg/kg eight times twice weekly, day 19 until day 51), “partial remission (partial remission >10-50%)”; in data set [2] (1.9 mg/kg eight times twice weekly, day 54 until end of study on day 103), “complete remission (complete remission <10%)”. Moreover, the minimum tumor volume in data set [1] (2.4 mg/kg reconstituted with 2% polysorbate 80, day 23) was found to be 4 mm^3; in data set [1] (2.4 mg/kg reconstituted with 4% 2-HPßCD, day 26), 1 mm^3. For the same molecule, the animals lost entry in data set [1] (2.4 mg/kg, 2% polysorbate 80 group) is reported as “Only one mouse”; in data set [2] (setting [4]), “four animals had to be removed from the study due to tumor necrosis”. In addition, the body weight result in data set [2] (setting [4]) is listed as “no sign of body weight loss compared to the control”. In data set [2] (1.9 mg/kg versus auristatin E 0.3 mg/kg, eight times twice weekly, day 37 to day 40), the “p, antitumor efficacy versus auristatin E” value is given as less than 0.001.

Take `CC[C@H](C)[C@@H]([C@@H](CC(=O)N1CCC[C@H]1[C@H](OC)[C@@H](C)C(=O)N[C@H](C)C(=NNC(=O)c1ccc(NC(=O)CCCCCN2C(=O)C=CC2=O)cc1S(=O)(=O)O)c1ccccc1)OC)N(C)C(=O)[C@@H](NC(=O)[C@H](C(C)C)N(C)C)C(C)C` [AE-Keto-Sulf07, 2-(2-((R)-2-((2R,3R)-3-((S)-1-((3R,4S,5S)-4-((S)-2-((S)-2-(dimethylamino)-3-methylbutanamido)-N,3-dimethylbutanamido)-3-methoxy-5-methylheptanoyl)pyrrolidin-2-yl)-3-methoxy-2-methylpropanamido)-1-phenylpropylidene)hydrazine-1-carbonyl)-5-(6-(2,5-dioxo-2,5-dihydro-1H-pyrrol-1-yl)hexanamido)benzenesulfonic acid]: the tolerability result in the data set “Dose finding studies” (6.5 mg/kg biweekly in later xenograft studies, treatment stopped after five injections) was “above the MTD”; in “Dose finding studies” (all doses tested (1.2 and 2.4 mg/kg), injected eight times on a biweekly schedule) it was “well tolerated”. The safe dose in the data set “Dose finding studies” (biweekly schedule) turned out to be 4.5 mg/kg. The animals lost result in data set [1] (6.5 mg/kg five times twice weekly) is “two mice had to be sacrificed for general bad conditions”. For the same molecule, the tumor response result is reported as “complete remission (complete remission <10%)” in data set [1] (6.5 mg/kg five times twice weekly, day 19 until end of study on day 37) and “complete remission (complete remission <10%)” in data set [2] (4.5 mg/kg eight times twice weekly, day 26 until end of study on day 103). Also, the “p, antitumor effect versus auristatin E” value in data set [1] (6.5 mg/kg versus auristatin E 0.3 mg/kg, five injections twice weekly, day 9 until day 33) is on record as less than 0.01; in data set [2] (4.5 mg/kg versus auristatin E 0.3 mg/kg, eight times twice weekly, day 22 to day 40), less than 0.001. In data set [1] (6.5 mg/kg, day 28), the minimum tumor volume came out at 1 mm^3. Moreover, in data set [1] (6.5 mg/kg, day 37), the “tumor volume at the end of the study” value was approximately 14 mm^3. The “transient body weight loss” value in data set [1] (6.5 mg/kg, reached on day 21) came out at 13%. The body weight entry in data set [2] (4.5 mg/kg eight times twice weekly) is listed as “only a slightly reduced body weight growth compared to the control”.

Take `CC[C@H](C)[C@@H]([C@@H](CC(=O)N1CCC[C@H]1[C@H](OC)[C@@H](C)C(=O)N[C@H](C)[C@@H](O)c1ccccc1)OC)N(C)C(=O)[C@@H](NC(=O)[C@H](C(C)C)N(C)C)C(C)C` [auristatin E]: the tolerability result in “Dose finding studies” (0.3 mg/kg once weekly for 4 weeks) is reported as “well tolerated”; in “Dose finding studies” (0.6 mg/kg once weekly, no animal survived after the second injection) it was “high toxicity”; in “Dose finding studies” (1.2 mg/kg once weekly, no animal survived after the first injection), “high toxicity”. Further, the “maximum tolerated dose (MTD)” value in the data set “Dose finding studies” (injected biweekly for four weeks (total of eight injections)) came to 0.3 mg/kg. The tumor response result in data set [1] (0.3 mg/kg five times twice weekly, initial, until day 14) was “stable disease (stable disease >75-125%)”. For the same molecule, the antitumor effect result in data set [2] (0.3 mg/kg eight times twice weekly) was “did not achieve any antitumor effect”.
